TGI data for eleven molecules are collected here from PubChem BioAssay (NCI).

Among the test systems are SN12C renal; HT29 colon; SF-295 CNS; PC-3 prostate; MCF7 breast; SNB-75 CNS; NCI/ADR-RES ovarian; EKVX NSCLC; SK-MEL-28 melanoma; HCC-2998 colon; CAKI-1 renal; UO-31 renal.
Holding throughout (assay): NCI-60 cell line screen, 48 h

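Tested at 5 concentrations; 48 h exposure; 96-well plates; endpoints linearly interpolated, else capped at highest concentration. The concentration for full growth arrest is given as TGI.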

As to `OC(CC(CC(O)(C(F)(F)Cl)C(F)(F)Cl)=NNc1ccccc1)(C(F)(F)Cl)C(F)(F)Cl`, the TGI in the experiment with SN12C renal is over 10 µM; with HT29 colon it was over 10 µM; in the experiment with SF-295 CNS it was 7.09 µM; in the experiment on PC-3 prostate, 4.7 µM; with MCF7 breast, 9.93 µM; with SNB-75 CNS it was 7.69 µM. Further, the TGI in the experiment with NCI/ADR-RES ovarian is 8.62 µM; in the experiment with EKVX NSCLC, 7.35 µM; in the experiment with SK-MEL-28 melanoma, 8.06 µM; in the experiment on HCC-2998 colon, over 10 µM; in the experiment on CAKI-1 renal it was 6.43 µM.
Take `O[C@@]1(c2cccs2)c2cccc(Cl)c2[C@](O)(c2cccs2)c2cccc(Cl)c21`: the TGI was 34.1 µM with SN12C renal; 35.5 µM in the experiment with HT29 colon; 31.3 µM with SF-295 CNS; 50.7 µM in the experiment with PC-3 prostate; over 100 µM in the experiment on UO-31 renal; 37.2 µM in the experiment with MCF7 breast. In addition, the TGI in the experiment on SNB-75 CNS was over 100 µM; in the experiment with NCI/ADR-RES ovarian, over 100 µM; in the experiment with EKVX NSCLC, 44.9 µM; in the experiment with SK-MEL-28 melanoma, 37.8 µM; with HCC-2998 colon it was 32.7 µM; in the experiment on CAKI-1 renal, over 100 µM.
Regarding `CC1(C)CC(=O)/C(=C/C2CCNC2=S)C(=O)N1` (stereo not given), the TGI in the experiment on SN12C renal, in the experiment on HT29 colon, in the experiment with SF-295 CNS, with PC-3 prostate, in the experiment on UO-31 renal and in the experiment with MCF7 breast was over 100 µM each time. Also, the TGI in the experiment with SNB-75 CNS, in the experiment with NCI/ADR-RES ovarian, in the experiment on EKVX NSCLC, in the experiment on SK-MEL-28 melanoma, with HCC-2998 colon and in the experiment with CAKI-1 renal was over 100 µM each time.
Regarding `CCCCCCCC(=O)OC[n+]1ccc(-c2c(COC(=O)NC(C)C)c(COC(=O)NC(C)C)c3n2CCC3)cc1`, the TGI with SN12C renal, with HT29 colon, in the experiment with SF-295 CNS, in the experiment on PC-3 prostate, with UO-31 renal and in the experiment on MCF7 breast was over 100 µM throughout. Further, the TGI is over 100 µM in the experiment with SNB-75 CNS; over 100 µM with NCI/ADR-RES ovarian; over 100 µM in the experiment on EKVX NSCLC; over 100 µM with SK-MEL-28 melanoma; over 100 µM with HCC-2998 colon; 62.7 µM with CAKI-1 renal.
As for `COC(=O)C1=C(OC(=O)/C(=C/c2ccc(Cl)cc2Cl)c2ccc(Cl)cc2Cl)C(C(=O)OC)[C@@]2(O)[C@@H](C(=O)OC)[C@H](C)C[C@@H]1[C@@H]2C(=O)OC` (stereo not given in full), the TGI with SN12C renal, in the experiment on HT29 colon, with SF-295 CNS, in the experiment with PC-3 prostate, with UO-31 renal and in the experiment on MCF7 breast was over 100 µM in each case. Also, the TGI in the experiment on SNB-75 CNS, in the experiment on NCI/ADR-RES ovarian, in the experiment with EKVX NSCLC, in the experiment on SK-MEL-28 melanoma, in the experiment with HCC-2998 colon and with CAKI-1 renal was over 100 µM in each case.
As to `NCCC(=O)N[C@H](Cc1cc(O)c(O)c(SCC(NC(=O)CC[C@H](N)C(=O)O)C(=O)NCC(=O)O)c1)C(=O)O` (stereo not given in full), the TGI with SN12C renal, in the experiment on HT29 colon, with SF-295 CNS, with PC-3 prostate, with UO-31 renal and in the experiment on MCF7 breast was over 50 µM each time. Besides, the TGI in the experiment with SNB-75 CNS, with NCI/ADR-RES ovarian, in the experiment with EKVX NSCLC, with SK-MEL-28 melanoma, in the experiment on HCC-2998 colon and in the experiment with CAKI-1 renal was over 50 µM each time.
Take `CCSc1c(C)c2c(n(Cc3ccc(OC)cc3)c1=O)Cc1ccccc1C2`: the TGI in the experiment on SN12C renal is 46.5 µM; in the experiment on HT29 colon it was 72.2 µM; in the experiment with SF-295 CNS it was over 100 µM; in the experiment with PC-3 prostate, 84.3 µM; in the experiment on UO-31 renal, over 100 µM; in the experiment on MCF7 breast, over 100 µM. Further, the TGI in the experiment with SNB-75 CNS was over 100 µM; in the experiment with NCI/ADR-RES ovarian, 74.5 µM; with EKVX NSCLC, 96.9 µM; in the experiment on SK-MEL-28 melanoma it was over 100 µM; in the experiment on HCC-2998 colon, 41.6 µM; in the experiment with CAKI-1 renal it was over 100 µM.
As to `CC(=O)NC1=C(C)C(=O)c2c(nc3n2CCC3OC(=O)c2ccccc2)C1=N` (stereo not given), the TGI in the experiment with SN12C renal was determined as 3.16 µM; with HT29 colon, 3.96 µM; with SF-295 CNS it was 6.53 µM; with PC-3 prostate it was 6.85 µM; in the experiment on UO-31 renal it was 4.34 µM; in the experiment with MCF7 breast, 2.53 µM. Moreover, the TGI worked out at 5.27 µM in the experiment with SNB-75 CNS; 8.52 µM in the experiment with NCI/ADR-RES ovarian; 6 µM in the experiment with EKVX NSCLC; 3.45 µM in the experiment on SK-MEL-28 melanoma; 3.79 µM in the experiment on HCC-2998 colon; 4 µM with CAKI-1 renal.
As to `COC1(C(C)(C)C)C=C(C(C)(C)C)P(=O)(O)O1` (stereo not given), the TGI with SN12C renal, in the experiment on HT29 colon, with SF-295 CNS, in the experiment on PC-3 prostate, with MCF7 breast and in the experiment on SNB-75 CNS was over 100 µM in each case. Also, the TGI in the experiment with NCI/ADR-RES ovarian, in the experiment with EKVX NSCLC, in the experiment on SK-MEL-28 melanoma, in the experiment with HCC-2998 colon and in the experiment with CAKI-1 renal was over 100 µM throughout.
For the molecule `C=C(C)[C@@H]1C[C@H]2O[C@](O)(C(=C)CC(=O)/C=C(/C)C[C@@H]3OC(=O)[C@]24O[C@@H]34)[C@H]1O`, the TGI in the experiment with SN12C renal, in the experiment on HT29 colon, in the experiment on SF-295 CNS, in the experiment with PC-3 prostate, in the experiment on UO-31 renal and in the experiment with MCF7 breast was over 100 µM in each case. For the same molecule, the TGI in the experiment with SNB-75 CNS, with NCI/ADR-RES ovarian, with EKVX NSCLC, with SK-MEL-28 melanoma, in the experiment with HCC-2998 colon and with CAKI-1 renal was over 100 µM throughout.
Consider `COC(=O)Nc1nc2ccc(Oc3ccc4nc(NC(=O)OC)[nH]c4c3)cc2[nH]1`, for which the TGI with SN12C renal is over 100 µM; in the experiment on HT29 colon, over 100 µM; in the experiment with SF-295 CNS it was over 100 µM; in the experiment with PC-3 prostate it was over 78.5 µM; with UO-31 renal, over 100 µM; in the experiment with MCF7 breast, over 100 µM. The TGI in the experiment with SNB-75 CNS is 2.87 µM; in the experiment with NCI/ADR-RES ovarian, over 100 µM; in the experiment with EKVX NSCLC, over 100 µM; in the experiment with SK-MEL-28 melanoma it was over 20.4 µM; in the experiment with HCC-2998 colon, over 22.7 µM; with CAKI-1 renal, over 100 µM.
